Literature values as cited in patent US10961240B2, “Formulations of a compound modulating kinases” (Plexxikon Inc., priority 2017, dated 2021).

Columns and labels:
microglia = conditions: sustained after intracerebral hemorrhage
Hodgkin Lymphoma = conditions: heavily pretreated patient cohort
mouse melanoma models = conditions: with tumor-specific CD8 T cells
TGCT = conditions: phase III
[1] = tested on: neurofibromatosis affected mice

## FC(F)(F)c1ccc(CNc2ccc(Cc3c[nH]c4ncc(Cl)cc34)cn2)cn1 [Compound I]
microglia
  microglia depletion: effectively depleted microglia
Hodgkin Lymphoma
  efficacy: modest efficacy
  safety profile: manageable safety profile
Mouse melanoma models
  control of tumor outgrowth: strongly promoted the control of tumor outgrowth
TGCT
  primary endpoint: tumor response measured by tumor size reduction: met its primary endpoint
MPNST xenograft; MPNST xenograft
  tumor growth: significant suppression of tumor growth
MPNST xenograft; MPNST xenograft samples
  blockade of receptor tyrosine kinases: sustained blockade of c-Kit, c-Fms and PDGFRβ
[1]
  bone loss: prevented bone loss
